Source: publication PMC8904554, “Discovery of antimicrobials by massively parallelized growth assays (Me^x)” (Scientific Reports, 2022)
Where two headings read alike, the source gives them in different places. Ends that are not written are not given here.

How the values were obtained:
E. coli TOP10 = assay: microbe, parasite or virus in culture; type: cell-based, Escherichia coli; conditions: for MIC: Escherichia coli, TOP10, read-out: MIC of ampicillin (control) against E. coli TOP10, control; for MIC [µM] 25%MHB: 25% (diluted) Mueller-Hinton Broth; for MIC [µM] 25%MHB / MIC [µM] 100%MHB: 5 × 10^5 cells ml^−1, twofold dilutions, 18 h, 37 °C, no shaking, OD read-out, MIC = < 5% of OD of growth control, mean, n = 3; for MIC [µM] 100%MHB: 100% Mueller-Hinton Broth
Experimental: On the same day at which MIC assays were executed, purified peptides were thawed and the concentration was determined by HPLC as described before. […] The cultures were then supplemented with 20% glycerol, aliquoted, and frozen at − 80 °C. […] Then the peptides were added by the liquid handling system in twofold dilutions using minimum of 100 µg ml^−1 as the highest concentration. MICs were determined as broth microdilution assay in 384-well flat bottom polypropylene plates (Falcon 96-Well Flat-Bottom Microplate) adapted from the protocol of Wiegand et al.[43]. The plates were sealed airtight and incubated for 18 h without shaking at 37 °C before reading the OD using a Tecan Infinite 200 PRO plate reader. […] MIC experiments were performed at least in triplicate.

human erythrocytes = assay: Hemolysis assay using chemically synthesized peptides; type: cell-based; conditions: for Hemolysis at 16MIC: peptide at 16 × MIC; for Hemolysis at 16MIC / Hemolysis at MIC: human erythrocytes 1:50 in DPBS, 1 h, 37 °C, absorbance 540 nm, relative to full lysis with […] Triton-X100, n = 4; for Hemolysis at MIC: peptide at MIC; for hemolytic activity, in words: MIC/16 to 16 × MIC; on Hemolysis at 16MIC: relative to full lysis with 2.5% Triton-X100
Experimental: Two samples of human blood were obtained from a blood bank (Blutspendezentrum SRK at the University Hospital Basel). The samples were pooled and erythrocytes were isolated by repeated centrifugation at 500×g for 10 min, removal of the blood plasma and resuspending the remaining cells in an equal volume of DPBS. Following last resuspension, erythrocytes were diluted 1:50 in DPBS. […] To each well of the dilution plate, 100 μl of the red blood cells suspension was added. The plate was incubated for 1 h at 37 °C. […] The absorbance was measured at 540 nm using an Infinite M1000 PRO plate reader (Tecan) and corrected by the measurements from the untreated wells. The lysis of each peptide concentration was expressed relative to the lysis control (set as 100% lysis). […]

[1] = Precipitation observed in the membrane damage assay; type: physicochemical; conditions: 100% MHB, printed as higher than 4xMIC (16 µM)
Experimental: The bacterial strain suspension was furthermore supplemented with a final concentration of 1 µg ml^−1 propidium iodide just before pipetting the assay. […] The fractions of PI-positive and GFP-positive were determined with the same gate for all populations using the FlowJo V10 software (BD Biosciences). The extracellular membrane integrity assay was performed in biological duplicates analyzing at least 10,000 cells in each experiment.

bacteria = test system: bacteria; parameters: method as in earlier work; conditions: ref supplement references 1-15 (Table S1); cited from earlier work
E.coli = test system: E.coli; parameters: method as in earlier work; conditions: ref supplement references 1-15 (Table S1); cited from earlier work
[2] = test system: Enterococcus faecalis ATCC 29212; type: cell-based; conditions: chemically synthesized peptide, mean, n = 3
Experimental: (§1) On the same day at which MIC assays were executed, purified peptides were thawed and the concentration was determined by HPLC as described before. E. coli TOP10 cells were grown in Mueller Hinton Broth (MHB) or diluted MHB (25% of the original strength) overnight to stationary phase. Diluted MHB has been frequently used to assay antimicrobial peptides. The cultures were then supplemented with 20% glycerol, aliquoted, and frozen at − 80 °C. […] Then the peptides were added by the liquid handling system in twofold dilutions using minimum of 100 µg ml^−1 as the highest concentration. MICs were determined as broth microdilution assay in 384-well flat bottom polypropylene plates (Falcon 96-Well Flat-Bottom Microplate) adapted from the protocol of Wiegand et al.[43]. The plates were sealed airtight and incubated for 18 h without shaking at 37 °C before reading the OD using a Tecan Infinite 200 PRO plate reader. […] MIC experiments were performed at least in triplicate.

[3] = test system: Pseudomonas aeruginosa ATCC 47085; type: cell-based; conditions: chemically synthesized peptide, mean, n = 3
Experimental: as §1

E. coli ATCC 25922 = type: cell-based; conditions: chemically synthesized peptide, mean, n = 3
Experimental: as §1

[4] = test system: Staphylococcus aureus ATCC 29213; type: cell-based; conditions: chemically synthesized peptide, mean, n = 3
Experimental: as §1

[5] = test system: Klebsiella pneumonia ATCC 13883; type: cell-based; conditions: chemically synthesized peptide, mean, n = 3
Experimental: as §1

Compound	Hemolysis at 16MIC (human erythrocytes) [%]	Hemolysis at MIC (human erythrocytes) [%]	MIC [µM] 25%MHB (E. coli TOP10) [µM]	MIC [µM] 100%MHB (E. coli TOP10) [µM]	also measured
CC1(C)S[C@@H]2[C@H](NC(=O)[C@H](N)c3ccccc3)C(=O)N2[C@H]1C(=O)O [ampicillin, reference compound]	–	–	–	–	MIC (E. coli TOP10; 25% MHB): 17 µM; MIC (E. coli TOP10; 100% MHB): 34 µM
AIAKLVAKFGWPIVKKYYKQIMQFIGEGWAINKIIEWIKK [Enterocin RJ-11 3780 NCBI]	103.3	22.7	1	0.5	hemolysis at the MIC compared to the Triton-X100 control (toxicity towards human erythrocytes) (human erythrocytes): > 5%
Melittin: highly membrane damaging peptide used as a control [reference compound]	–	–	–	–	hemolysis at the MIC compared to the Triton-X100 control (toxicity towards human erythrocytes) (human erythrocytes): > 5%; concentration above which the peptide started to precipitate [1]: > 16 µM
VKLIQIRIWIQYVTVLQMFSMKTKQ [Meucin-25 11598 APD]	–	–	> 60	> 60	–
CC[C@H](C)[C@H](NC(=O)[C@H](Cc1c[nH]c2ccccc12)NC(=O)[C@H](CCCCN)NC(=O)[C@@H](NC(=O)[C@H](CC(C)C)NC(=O)[C@H](CC(=O)O)NC(=O)CNC(=O)[C@@H](NC(=O)[C@@H](NC(=O)[C@H](CO)NC(=O)[C@@H](NC(=O)[C@@H](NC(=O)[C@H](CC(=O)O)NC(=O)[C@H](C)NC(=O)[C@H](C)NC(=O)[C@@H](N)CCSC)[C@@H](C)CC)[C@@H](C)CC)[C@@H](C)O)[C@@H](C)CC)C(C)C)C(=O)N[C@H](C(=O)N[C@@H](CC(=O)O)C(=O)N[C@H](C(=O)N[C@H](C(=O)N[C@@H](CC(N)=O)C(=O)N[C@@H](CCCCN)C(=O)N[C@@H](Cc1ccccc1)C(=O)N[C@@H](CCCCN)C(=O)O)C(C)C)[C@@H](C)O)[C@@H](C)CC [Delta lysin I 3458 NCBI]	–	–	> 60	> 60	–
VDKGGYLPRPTPPRPVYR [Pyrrhocoricin 7122 NCBI]	2.3	1.1	8	20	–
TALKGAAKELASTYQH [Maximin 3 5468 NCBI]	–	–	> 60	> 60	–
KRFKKFFKKLKKSVKKRAKKFFKKPRVIGVSIPF [BF-CATH 9639 APD]	4.8	2.1	1	1	–
GFKDWIKGAAKKLIKTVASSIANE [Ascaphin-6 9286 APD]	1.4	0	1	0.8	–
GKFSGFAKILKSIAKFFKGVGKVRKGFKEASDLDKNQ [Oxyopinin 2b 9690 APD]	63.4	0.7	0.5	0.5	hemolytic activity, in words (human erythrocytes): displayed hemolytic activity at higher concentrations
LKDKVKSMGEKLKQYIQTWKAKF [Latarcin 4a 5147 APD]	2.8	0.2	5	8	–
Pyrrhocoricin PARENT: PARENT peptide on the APD, a ribosomal inhibitor	–	–	–	–	Reported antibacterial mechanism of action of parent (bacteria): Translation inhibition; Previously reported activity against E.coli of parent (E.coli): active
VSKIKKYLKYKDRI [P-10 8942 APD]	2.2	0.5	13	> 60	–
GWFKKAWRKVKHAGRRVLDTAKGVGRHYLNNWLNRYR [HFIAP-1 4545 NCBI]	18.9	4.1	0.5	0.5	hemolytic activity, in words (human erythrocytes): displayed hemolytic activity at higher concentrations; MIC [µm] in MHB [2]: 5.6 µM; MIC [µm] in MHB [3]: 0.7 µM; MIC [µm] in MHB (E. coli ATCC 25922): 0.7 µM; MIC [µm] in MHB [4]: 1.4 µM; MIC [µm] in MHB [5]: 0.4 µM
